The results in this text go back to PMC6934184, “Selective DNA-PKcs inhibition extends the therapeutic index of localized radiotherapy and chemotherapy” (The Journal of Clinical Investigation, 2019).

Each structure is given as a SMILES string.

This assay deals with T1, TYK2 (Homo sapiens, UniProt P29597).
T1 construct: purchased Thermo Fisher Scientific (Life Technologies) SelectScreen
Description: SelectScreen Z'LYTE. The format is biochemical. In a few lines:
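SelectScreen broad panel; activity (Z'LYTE, Adapta) plus binding formats. ATP: Km app for CSF1R Z'LYTE; 10 for CAMK1 Adapta. Readout = % per kinase.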

One may read the inhibition as the share of the control response that was lost under treatment.

T1 sequence (P29597 whole entry): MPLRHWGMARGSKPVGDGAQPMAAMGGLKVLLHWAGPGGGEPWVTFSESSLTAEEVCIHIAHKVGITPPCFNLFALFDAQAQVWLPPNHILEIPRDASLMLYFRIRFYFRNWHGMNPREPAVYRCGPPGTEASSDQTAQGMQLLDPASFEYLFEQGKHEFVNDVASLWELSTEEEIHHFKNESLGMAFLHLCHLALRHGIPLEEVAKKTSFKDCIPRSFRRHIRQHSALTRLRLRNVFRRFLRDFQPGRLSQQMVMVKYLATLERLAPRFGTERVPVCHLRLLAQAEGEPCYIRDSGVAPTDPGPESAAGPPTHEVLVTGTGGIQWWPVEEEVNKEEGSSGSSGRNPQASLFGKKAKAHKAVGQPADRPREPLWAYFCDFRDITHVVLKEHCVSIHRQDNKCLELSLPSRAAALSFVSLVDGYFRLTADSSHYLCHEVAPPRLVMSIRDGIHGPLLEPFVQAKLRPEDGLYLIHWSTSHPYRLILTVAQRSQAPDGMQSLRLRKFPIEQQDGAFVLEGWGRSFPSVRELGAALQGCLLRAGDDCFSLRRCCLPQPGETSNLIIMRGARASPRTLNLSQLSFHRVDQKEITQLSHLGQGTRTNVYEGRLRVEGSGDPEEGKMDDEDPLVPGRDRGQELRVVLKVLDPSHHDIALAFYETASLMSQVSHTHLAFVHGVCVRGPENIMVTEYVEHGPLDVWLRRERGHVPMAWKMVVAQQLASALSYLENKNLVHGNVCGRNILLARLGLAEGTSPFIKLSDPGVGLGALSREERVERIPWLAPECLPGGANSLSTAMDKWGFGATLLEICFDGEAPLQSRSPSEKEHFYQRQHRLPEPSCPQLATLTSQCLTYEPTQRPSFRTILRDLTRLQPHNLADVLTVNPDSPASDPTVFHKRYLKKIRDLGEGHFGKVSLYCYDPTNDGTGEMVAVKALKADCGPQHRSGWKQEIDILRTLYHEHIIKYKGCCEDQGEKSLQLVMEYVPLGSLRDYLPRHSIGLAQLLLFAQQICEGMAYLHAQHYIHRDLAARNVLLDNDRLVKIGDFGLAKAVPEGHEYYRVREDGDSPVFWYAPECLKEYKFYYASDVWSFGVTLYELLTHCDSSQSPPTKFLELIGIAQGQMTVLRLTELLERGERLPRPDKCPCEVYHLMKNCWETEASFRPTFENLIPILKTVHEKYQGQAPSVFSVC

`CN(C(=O)CN1CCOCC1)c1ccc2sc3c(-c4cccc5c(=O)cc(N6CC7CCC(C6)O7)oc45)cccc3c2c1` [NU5455] displayed an inhibition at 1 µM of 4.2%.
